Data: patent publication US20240352012A1, “PAN-CASPASE INHIBITORS” (GEORGE MASON UNIVERSITY, priority 2023, published 2024)

What was measured:
Caspase 3 [1] = molecular target: T1, Caspase 3 (Homo sapiens, UniProt P42574)
T1 sequence (P42574 29-175 limits assumed): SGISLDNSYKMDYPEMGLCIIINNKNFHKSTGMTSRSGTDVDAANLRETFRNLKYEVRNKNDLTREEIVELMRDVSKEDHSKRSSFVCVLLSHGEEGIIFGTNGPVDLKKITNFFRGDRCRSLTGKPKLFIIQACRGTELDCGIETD
T1 sequence (P42574 176-277 limits assumed): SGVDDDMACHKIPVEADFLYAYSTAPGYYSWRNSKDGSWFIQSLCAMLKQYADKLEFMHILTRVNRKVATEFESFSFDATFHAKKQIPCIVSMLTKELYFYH
Method: (§1) Caspase 3 screening assays were performed similar to the assays described by Okun et al. [61]. […] The direct fluorometric enzyme assay was performed in a 96 well plate which was read in a temperature-controlled plate reader equipped with a 400-nm excitation filter and 505-nm emission filter. The fluorescence was read every one minute for 60 minutes.
(§2) A volume of 1 μL of DMSO solution was added to 24 μL H2O to produce a final volume of 25 μL/well in a 96 well plate. A volume of 2.5 μL of the Active caspase 3 was added. 2) A positive inhibition control was prepared by adding 1 μL of the caspase 3 Inhibitor (Z-DEVD-FMK, provided in the kit) instead of the tested compounds. 3) The other positive inhibition control was prepared by adding 1 μL of the caspase 3/7 Inhibitor (Compound C2, purchased from ApexBio company A1925) instead of the tested compounds. 4) A negative inhibition control was prepared using pure DMSO without the inhibitor. A volume of 1 μL of pure DMSO to 24 μL H2O to a final volume of 25 μL/well. 5) Master Mix was prepared for each assay containing the follows: a. 22.5 μL 2× Reaction Buffer (containing 10 mM DTT). b. 2.5 μL of the 1 mM Ac-DEVD-AFC substrate (50 μM final concentration). 6) Master Mix was mixed well then 22.5 μL of the Master Mix was added quickly to each well to start the reaction. 7) Samples were read in Gemini EM fluorescence Microplate reader with a 400 nm excitation wavelength and 505 nm emission wavelength every 1 minute for duration of 1 hour at 37° C. 8) Data was exported in an Excel spread sheet format and processed to determine the % inhibition compared to the controls in each plate. The IC50 was calculated using Graphpad PRISM 7 software.
(§3) All designed compounds were screened at a fixed concentration of 10 PM.

Caspase 7 = molecular target: T2, Caspase 7 (Homo sapiens, UniProt P55210); assay: biochemical
T2 sequence (P55210 24-198 limits assumed): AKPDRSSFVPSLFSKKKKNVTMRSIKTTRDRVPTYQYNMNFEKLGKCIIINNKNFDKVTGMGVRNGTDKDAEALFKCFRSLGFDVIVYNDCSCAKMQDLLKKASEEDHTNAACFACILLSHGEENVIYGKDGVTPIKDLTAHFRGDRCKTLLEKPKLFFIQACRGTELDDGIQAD
T2 sequence (P55210 207-303 limits assumed): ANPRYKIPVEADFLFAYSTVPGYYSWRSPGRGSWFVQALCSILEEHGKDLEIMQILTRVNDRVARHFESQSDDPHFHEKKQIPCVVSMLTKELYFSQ

Caspase 3 [2] = molecular target: T1, Caspase 3; assay: biochemical
Method: as §1, §2, §3

Caspase 1 = molecular target: T3, Caspase 1 (Homo sapiens, UniProt P29466); assay: Caspase 1 inhibitor screening and IC50 assay (direct fluorometric enzyme assay); format: biochemical; conditions: calculated by Graphpad PRISM 7; read-out: IC50 (nM) against Caspase 1
T3 construct: purchased Raybiotech Company 68FL-Casp1-S200
T3 sequence (P29466 120-297 limits assumed): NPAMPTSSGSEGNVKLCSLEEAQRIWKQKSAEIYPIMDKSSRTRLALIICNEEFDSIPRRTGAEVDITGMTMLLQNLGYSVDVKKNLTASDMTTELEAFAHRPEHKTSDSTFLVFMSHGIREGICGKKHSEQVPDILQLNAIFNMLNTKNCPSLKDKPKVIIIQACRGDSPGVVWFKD
T3 sequence (P29466 317-404 limits assumed): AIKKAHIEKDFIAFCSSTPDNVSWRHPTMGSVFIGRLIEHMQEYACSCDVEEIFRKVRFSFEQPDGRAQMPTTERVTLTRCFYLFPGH
Method: Caspase 3 screening assays were performed similar to the assays described by Okun et al. [61]. The caspase 3 inhibitor drug screening kits were purchases from Raybiotech Company (Caspase 3: Item number is 68SR-Casp3S100), (Caspase 7: Item number is 68SR-Casp7-S100), and (Caspase 1: Item number is 68FL-Casp1-S200). The direct fluorometric enzyme assay was performed in a 96 well plate which was read in a temperature-controlled plate reader equipped with a 400-nm excitation filter and 505-nm emission filter. The fluorescence was read every one minute for 60 minutes.

inhibition (Caspase 3 [1]) [%] | IC50 (Caspase 7) [µM] | IC50 (Caspase 3 [2]) [µM] | IC50 (Caspase 1) [nM] | SMILES
 | 0.408 | 0.785 | 261 | C#Cc1cccc(N2C(=O)c3c(C)nc4ccc(S(=O)(=O)N5CCCCC5)cc4c3C2=O)c1 [PE5, 2-(3-ethynylphenyl)-4-methyl-8-(piperidine-1-sulfonyl)-1H,2H,3H-pyrrolo[3,4-c]quinoline1,3-dione]
 |  | ~4 |  | Cc1nc2ccc(S(=O)(=O)N3CCCC3)cc2c2c(=O)n(-c3ccccc3)[nH]c(=O)c12 [PY6B, 5-methyl-2-phenyl-9-(pyrrolidine-1-sulfonyl)-1H,2H,3H,4H-pyridazino[4,5-c]quinoline-1,4dione]
 |  | 0.1 to 0.3 |  | Cc1nc2ccc(S(=O)(=O)N3CCOCC3)cc2c2c1C(=O)N(c1ccc(I)cc1)C2=O [MO11, 2-(4-iodophenyl)-4-methyl-8-(morpholine-4-sulfonyl)-1H,2H,3H-pyrrolo[3,4-c]quinoline1,3-dione]
 | 0.145 | 0.164 | 361 | Cc1ccc(N2C(=O)c3c(C)nc4ccc(S(=O)(=O)N5CCOCC5)cc4c3C2=O)cc1 [MO13, 4-methyl-2-(4-methylphenyl)-8-(morpholine-4-sulfonyl)-1H,2H,3H-pyrrolo[3,4-c]quinoline1,3-dione]

Second part, the molecule before the results:

SMILES | inhibition (Caspase 3 [1]) [%] | IC50 (Caspase 7) [µM] | IC50 (Caspase 3 [2]) [µM] | IC50 (Caspase 1) [nM]
Cc1cc(N2C(=O)c3c(C)nc4ccc(F)cc4c3C2=O)c2ccccc2n1 [Compound F4, 8-fluoro-4-methyl-2-(2-methylquinolin-4-yl)-1H,2H,3H-pyrrolo[3,4-c]quinoline-1,3-dione] | ~30 |  |  | 
Cc1cc(N2C(=O)c3c(C)nc4ccc(S(=O)(=O)N5CCOCC5)cc4c3C2=O)c2ccccc2n1 [MO4, 4-methyl-2-(2-methylquinolin-4-yl)-8-(morpholine-4-sulfonyl)-1H,2H,3H-pyrrolo[3,4c]quinoline-1,3-dione] |  | 0.0352 | 0.742 | 178
Cc1nc2ccccc2c2c1C(=O)N(c1ccc(I)cc1)C2=O [Compound H11, 2-(4-iodophenyl)-4-methyl-1H,2H,3H-pyrrolo[3,4-c]quinoline-1,3-dione] | ~25 |  |  | 
Cc1cc(N2C(=O)c3c(C)nc4ccccc4c3C2=O)c2ccccc2n1 [Compound H4, 4-methyl-2-(2-methylquinolin-4-yl)-1H,2H,3H-pyrrolo[3,4-c]quinoline-1,3-dione] | ~30 |  |  | 
Cc1ccc(N2C(=O)c3c(C)nc4ccccc4c3C2=O)cc1 [Compound H13, 4-methyl-2-(4-methylphenyl)-1H,2H,3H-pyrrolo[3,4-c]quinoline-1,3-dione] | ~25 |  |  | 
